Data published in the supplement of paper PMC10307832.

Tests used:
Assay in all cases: relative viability (nuclei count vs DMSO), 5 days (fraction); higher = more cells survive
JZL-184 = compound: C1CN(CCC1C(C2=CC3=C(C=C2)OCO3)(C4=CC5=C(C=C4)OCO5)O)C(=O)OC6=CC=C(C=C6)[N+](=O)[O-] [JZL-184]
How it was run: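 In 1536-well plates, lung cancer cell lines rested overnight at 37 °C before five library-drug doses (not always all listed), √10 apart, were pinned onto vehicle-anchored plates. Nuclei were counted with MetaXpress from 4× Hoechst images taken after 5 days without medium change. Viability compares treated-well with vehicle-well nuclei as a median over plates, and plates needed control CV below 25% plus at least one doubling to pass.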

JZL-184 + Crizotinib = compound: C1CN(CCC1C(C2=CC3=C(C=C2)OCO3)(C4=CC5=C(C=C4)OCO5)O)C(=O)OC6=CC=C(C=C6)[N+](=O)[O-] [JZL-184] + C[C@@H](Oc1cc(-c2cnn(C3CCNCC3)c2)cnc1N)c1c(Cl)ccc(F)c1Cl [Crizotinib] (partner 1 µM)
How it was run: (§1)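 Lung cancer cell lines in 1536-well plates were dosed by pin tool the day after seeding, either with one drug alone or with a fixed anchor-drug dose plus five library-drug doses (not always all listed) in √10 steps. After 5 days, cells were fixed and their nuclei stained in one step (final 0.05% Triton X-100, 1% formaldehyde, 1 ug/ml Hoechst), then counted on 4× images. Relative viability is the nuclei count in treated wells divided by that in vehicle wells. Values are medians of duplicate plates.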

JZL-184 + Olaparib = compound: C1CN(CCC1C(C2=CC3=C(C=C2)OCO3)(C4=CC5=C(C=C4)OCO5)O)C(=O)OC6=CC=C(C=C6)[N+](=O)[O-] [JZL-184] + O=C(c1cc(Cc2n[nH]c(=O)c3ccccc23)ccc1F)N1CCN(C(=O)C2CC2)CC1 [Olaparib] (partner 8 µM)
How it was run: as §1

JZL-184 + Alpelisib = compound: C1CN(CCC1C(C2=CC3=C(C=C2)OCO3)(C4=CC5=C(C=C4)OCO5)O)C(=O)OC6=CC=C(C=C6)[N+](=O)[O-] [JZL-184] + Cc1nc(NC(=O)N2CCC[C@H]2C(N)=O)sc1-c1ccnc(C(C)(C)C(F)(F)F)c1 [Alpelisib] (partner 2 µM)
How it was run: as §1

JZL-184 + Dasatinib = compound: C1CN(CCC1C(C2=CC3=C(C=C2)OCO3)(C4=CC5=C(C=C4)OCO5)O)C(=O)OC6=CC=C(C=C6)[N+](=O)[O-] [JZL-184] + Cc1nc(Nc2ncc(C(=O)Nc3c(C)cccc3Cl)s2)cc(N2CCN(CCO)CC2)n1 [Dasatinib] (partner 0.075 µM)
How it was run: as §1

Cell Line	relative viability (JZL-184; 0.04 µM)	relative viability (JZL-184; 0.4 µM)	relative viability (JZL-184; 1.265 µM)	relative viability (JZL-184; 4 µM)	relative viability (JZL-184 + Crizotinib; first compound 0.04 µM)	relative viability (JZL-184 + Crizotinib; first compound 0.4 µM)	relative viability (JZL-184 + Crizotinib; first compound 1.265 µM)	relative viability (JZL-184 + Crizotinib; first compound 4 µM)	relative viability (JZL-184 + Olaparib; first compound 0.04 µM)	relative viability (JZL-184 + Olaparib; first compound 0.4 µM)	relative viability (JZL-184 + Olaparib; first compound 1.265 µM)	relative viability (JZL-184 + Olaparib; first compound 4 µM)	relative viability (JZL-184 + Alpelisib; first compound 0.04 µM)	relative viability (JZL-184 + Alpelisib; first compound 0.4 µM)	relative viability (JZL-184 + Alpelisib; first compound 1.265 µM)	relative viability (JZL-184 + Alpelisib; first compound 4 µM)	relative viability (JZL-184 + Dasatinib; first compound 0.04 µM)	relative viability (JZL-184 + Dasatinib; first compound 0.4 µM)	relative viability (JZL-184 + Dasatinib; first compound 1.265 µM)	relative viability (JZL-184 + Dasatinib; first compound 4 µM)
NCI-H1437	1.04	0.948	1.02	0.961	0.938	0.889	0.888	0.841	0.665	0.61	0.632	0.636	1.12	0.971	0.92	0.916	0.414	0.304	0.434	0.405
NCI-H1651	1.08	0.907	1	0.967	0.896	0.839	0.895	0.87	0.24	0.176	0.196	0.207	1.05	0.929	1.03	0.834	0.407	0.376	0.487	0.42
NCI-H1666	1.01	1.01	0.967	1.04	1.17	0.983	0.872	0.992	0.755	0.716	0.712	0.735	1.04	0.919	1.05	1.06	0.842	0.861	0.764	0.783
NCI-H1734	1.12	0.865	1.03	0.963	0.806	0.617	0.672	0.701	0.674	0.589	0.627	0.547	0.658	0.545	0.714	0.642	0.503	0.425	0.442	0.453
NCI-H1755	1.04	0.988	0.985	0.956	0.933	0.894	0.835	0.793	0.812	0.896	0.891	0.895	0.942	0.866	0.943	0.885	0.445	0.428	0.406	0.396
NCI-H1792	1.03	0.836	0.883	1.18	1.04	0.713	1	0.97	0.349	0.304	0.465	0.432	0.835	0.613	0.762	0.757	0.854	0.771	0.912	0.718
NCI-H1915	1.09	0.956	1.1	0.976	0.924	0.821	0.902	0.84	0.262	0.264	0.273	0.233	1.08	1.04	1.04	1.04	0.318	0.298	0.364	0.281
NCI-H1944	0.954	0.921	1.03	1.01	1.27	1.04	1.12	1.04	0.402	0.351	0.401	0.444	0.798	0.869	0.842	0.804	0.256	0.208	0.221	0.213
NCI-H1975	0.996	0.938	1.01	0.915	1.11	0.901	0.995	0.975	0.849	0.726	0.876	0.694	0.751	0.673	0.642	0.577	0.427	0.356	0.347	0.31
NCI-H1993	0.943	0.982	1.08	0.916	0.956	0.805	0.934	0.903	1.11	1.05	1.13	0.966	0.719	0.72	0.711	0.677	0.498	0.617	0.709	0.674
NCI-H2009	1.12	0.942	1.02	1	1.15	1.06	1.02	1.01	0.785	0.696	0.734	0.642	1.17	1.1	1.16	1.09	0.354	0.28	0.333	0.239
NCI-H2023	1.15	0.921	1.01	0.944	0.726	0.626	0.671	0.578	0.529	0.466	0.484	0.44	0.654	0.593	0.568	0.593	0.713	0.549	0.587	0.48
NCI-H2085	0.719	0.989	1.07	0.98	0.969	0.806	0.808	0.844	–	0.743	0.815	0.704	0.946	0.904	0.905	0.811	0.236	0.234	0.299	0.261
NCI-H2087	1.15	0.99	1.04	1.11	0.928	0.816	0.757	0.93	0.714	0.585	0.665	0.517	1.11	1.02	1.11	1.01	0.905	0.905	0.716	0.875
NCI-H2126	0.996	0.974	1.03	0.988	1.04	1.02	1.06	1.02	0.892	0.891	0.975	0.925	0.721	0.738	0.802	0.717	0.612	0.639	0.607	0.612
NCI-H2170	1.1	0.948	1.02	0.928	1.38	1.17	1.27	1.17	0.68	0.613	0.617	0.544	0.806	0.793	0.74	0.736	0.654	0.476	0.577	0.598
NCI-H2228	1.16	0.945	1.04	0.918	0.543	0.442	0.517	0.511	1.13	0.613	0.915	0.977	0.894	0.726	0.709	0.789	0.663	0.445	0.543	0.587
NCI-H2347	0.865	0.996	1.06	0.989	0.968	0.835	0.694	0.72	–	0.577	0.586	0.53	1.05	1.02	1.05	1.1	0.277	0.305	0.29	0.369
NCI-H2405	1	0.982	1.11	1	0.87	0.857	0.968	0.811	0.974	0.901	0.836	0.855	0.673	0.794	0.83	0.816	0.222	0.21	0.225	0.231
NCI-H3122	1.01	0.955	1.01	0.98	0.27	0.237	0.282	0.323	0.571	0.55	0.667	0.598	0.751	0.813	0.646	0.804	0.918	0.718	0.872	0.778
PC-3 [JPC-3]	1.04	0.978	1.1	1.01	1.02	1.03	1.01	0.974	1.14	1.04	1.21	1.15	1.09	0.961	1.05	1.01	1.01	0.905	0.976	0.945
PC-14	1.24	0.974	1.07	0.936	0.909	0.966	0.828	0.86	0.251	0.223	0.233	0.219	0.975	0.892	0.965	0.847	0.293	0.271	0.287	0.255
RERF-LC-KJ	1.05	0.981	1.02	0.988	0.844	0.75	0.856	0.742	0.976	0.911	0.895	0.905	0.753	0.761	0.837	0.804	0.909	0.72	0.864	0.759
SK-LU-1	1.11	0.982	1.15	1.02	1.05	0.889	1.15	1.11	0.593	0.408	0.463	0.642	1.51	0.931	1.3	1.06	0.183	0.196	0.194	0.207
SK-MES-1	1.1	0.982	1.07	0.939	1.03	0.867	1.01	0.924	0.792	0.698	0.765	0.662	0.938	0.851	0.863	0.896	0.332	0.486	0.359	0.445
SW 1573	1.15	0.926	1.08	1.02	0.904	0.724	0.883	0.759	0.68	0.351	0.454	0.479	0.873	0.605	0.894	0.75	0.638	0.379	0.548	0.42
UMC-11	1.12	0.951	1.08	0.976	0.787	0.679	0.555	0.57	0.349	0.333	0.308	0.354	1.39	0.904	0.924	0.96	0.662	0.474	0.494	0.447
